Experimental data taken from patent US7282489B2, “Compositions and methods for performing reverse gene therapy” (The Children's Hospital of Philadelphia, priority 2000, dated 2007).

Experiments:
[1] = molecular target: T1, channels formed with wild-type hMiRP1 (Homo sapiens, UniProt Q12809); assay: Whole cell voltage clamp, HEK293 cells stably expressing HERG and wild type hMiRP1; format: cell-based; details: wild-type hMiRP1, activation at +20 mV, read-out: Dose causing half block of the peak outward currents
T1 construct: expressed in transfected cells; host or cells: HEK293 stably expressing HERG, stably co-transfected with pIRES2-EGFP-hMiRP1-FLAG
T1 sequence (Q12809 whole entry): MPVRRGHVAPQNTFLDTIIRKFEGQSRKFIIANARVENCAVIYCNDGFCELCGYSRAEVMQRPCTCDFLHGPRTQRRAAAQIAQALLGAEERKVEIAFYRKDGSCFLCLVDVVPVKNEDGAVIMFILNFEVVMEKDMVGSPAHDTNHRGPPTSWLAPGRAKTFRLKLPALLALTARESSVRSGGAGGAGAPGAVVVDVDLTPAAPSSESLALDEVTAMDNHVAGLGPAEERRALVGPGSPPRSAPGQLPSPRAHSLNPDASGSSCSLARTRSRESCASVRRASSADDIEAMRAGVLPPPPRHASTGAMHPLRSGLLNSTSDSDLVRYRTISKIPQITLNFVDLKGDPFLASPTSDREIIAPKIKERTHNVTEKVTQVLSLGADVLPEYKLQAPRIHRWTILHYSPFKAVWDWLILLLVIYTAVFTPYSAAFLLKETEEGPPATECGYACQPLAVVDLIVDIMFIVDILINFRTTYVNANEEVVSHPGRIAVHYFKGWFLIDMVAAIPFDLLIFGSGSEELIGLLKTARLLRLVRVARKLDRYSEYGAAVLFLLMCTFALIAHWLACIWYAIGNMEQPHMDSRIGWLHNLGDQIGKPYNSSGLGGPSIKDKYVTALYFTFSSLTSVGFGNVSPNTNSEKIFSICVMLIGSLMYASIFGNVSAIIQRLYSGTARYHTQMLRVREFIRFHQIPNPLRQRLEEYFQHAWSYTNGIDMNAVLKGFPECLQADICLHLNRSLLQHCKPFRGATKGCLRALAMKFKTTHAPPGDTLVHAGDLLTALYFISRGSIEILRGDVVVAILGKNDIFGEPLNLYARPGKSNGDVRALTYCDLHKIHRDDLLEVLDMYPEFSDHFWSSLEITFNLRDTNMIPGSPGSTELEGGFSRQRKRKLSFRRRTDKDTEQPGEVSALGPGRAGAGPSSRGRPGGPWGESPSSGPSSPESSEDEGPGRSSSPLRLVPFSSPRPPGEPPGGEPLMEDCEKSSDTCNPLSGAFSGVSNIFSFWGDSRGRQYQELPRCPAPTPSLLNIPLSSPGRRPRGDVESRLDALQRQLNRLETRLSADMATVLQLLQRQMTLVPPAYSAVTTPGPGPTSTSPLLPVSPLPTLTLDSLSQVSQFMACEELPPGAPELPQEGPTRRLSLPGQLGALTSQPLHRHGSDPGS
T1 sequence (Q9Y6J6 whole entry, further chain): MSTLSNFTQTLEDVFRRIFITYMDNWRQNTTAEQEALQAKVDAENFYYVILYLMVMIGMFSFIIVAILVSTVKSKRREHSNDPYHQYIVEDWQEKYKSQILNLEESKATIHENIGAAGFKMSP
Protocol: (§1) Electrophysiology Methods: HEK293 cells that stably express HERG, but not hMiRP1 (Zhou, et al., 1999) were also stably co-transfected with either hMiRP1 or Q9E-hMiRP1 and subsequently were analyzed for channel function by single cell patch clamping using voltage clamp conditions. The data were analyzed at a sampling rate of 4 kHz and filtered at 1 kHz using Pclamp software version 6.0 (Axon Instruments, Foster City, Calif.). Leak correction was not performed, and therefore unaltered data are shown. All experiments were performed at 25° C. Protocols for steady-state activation and isochronal peak currents, and clarithromycin incubations were performed as described by Abbott et al., 1999. Initial studies were performed in buffer containing 95 mM KCl, 5 mM NaCl, 1 mM MgCl2, 0.3 mM CaCl2, and 10 mM HEPES (pH 7.6). For whole cell recordings, pipettes contained 100 mM KCl, 1 mM MgCl2, 10 mM HEPES, and 2 mM EGTA (pH 7.5). A 50 mM Clarithromycin (American Bioanalytical, Natick, Mass.) stock in DMSO was diluted in bath solution.

Q9E-hMiRP1 channels [2] = molecular target: T2, Q9E-hMiRP1 channels (Homo sapiens, UniProt Q12809); assay: Whole cell voltage clamp, HEK293 cells stably expressing HERG and Q9E-hMiRP1; format: cell-based; details: HEK293 cells overexpressing Q9E-hMiRP1, activation at +20 mV; read-out: Dose leading to half blockade of peak outward currents
T2 construct: expressed in transfected cells; host or cells: HEK293 stably expressing HERG, stably co-transfected with pIRES2-EGFP-Q9E-hMiRP1-FLAG
T2 sequence (Q12809 whole entry): as the sequence (Q12809 whole entry) above
T2 sequence (Q9Y6J6 whole entry Q9E, further chain): as the sequence (Q9Y6J6 whole entry, further chain) above, with Q9E counted along it
Protocol: as §1

Q9E-hMiRP1 channels [3] = molecular target: T3, Q9E-hMiRP1 channels (Homo sapiens, UniProt Q12809+Q9Y6J6, Q9E); assay: as above; format: cell-based
T3 construct: expressed in transfected cells; host or cells: HEK293 stably expressing HERG, stably co-transfected with pIRES2-EGFP-Q9E-hMiRP1-FLAG
T3 sequence (Q12809 whole entry): as the sequence (Q12809 whole entry) above
T3 sequence (Q9Y6J6 whole entry Q9E): as the sequence (Q9Y6J6 whole entry, further chain) above, with Q9E counted along it
Protocol: as §1

Q9E-hMiRP1 channels [4] = molecular target: T3, Q9E-hMiRP1 channels; details: patch clamp studies, Abbott et al, 1999; cited from earlier work
[5] = system: re-entrant atrial flutter; assay: Y-atriotomy model for re-entrant atrial flutter, burst atrial pacing; format: in vivo, dog; details: dogs systemically administered a dose of ibutilide equivalent to that provided by the polymer

SMILES	IC50 [1] [µM]	IC50 (Q9E-hMiRP1 channels [2]) [µM]	Effect on I/I max with increased voltages (Q9E-hMiRP1 channels [3]; 1.0 mM clarithromycin, Q9E-hMiRP1 stable cells, groups of 4 cells)	Clarithromycin effect in Q9E-hMiRP1 cells relative to wild type hMiRP1 cells (Q9E-hMiRP1 channels [3]; HEK293 cells)	Effect on peak outward currents (Q9E-hMiRP1 channels [3]; HEK293 cells over-expressing Q9E-hMiRP1, whole cell voltage clamp)	Sensitivity of Q9E-hMiRP1 channels to clarithromycin induced diminution of potassium currents relative to wild type (Q9E-hMiRP1 channels [4]) [fold]	Inhibition of inducibility of atrial flutter [5]
CC[C@H]1OC(=O)[C@H](C)[C@@H](O[C@H]2C[C@@](C)(OC)[C@@H](O)[C@H](C)O2)[C@H](C)[C@@H](O[C@@H]2O[C@H](C)C[C@H](N(C)C)[C@H]2O)[C@](C)(OC)C[C@@H](C)C(=O)[C@H](C)[C@@H](O)[C@]1(C)O [clarithromycin, Clarithromycin]	~2000	< 1000	blocked increases in I/I max with increased voltages	many-fold greater	reduced peak outward currents	3	–
CCCCCCCN(CC)CCCC(O)c1ccc(NS(C)(=O)=O)cc1 (stereo not shown) [ibutilide, Ibutilide]	–	–	–	–	–	–	No significant inhibition
